By logP is commonly meant a log measure of how a compound divides between an organic and an aqueous phase. Low values mean a more hydrophilic compound, high ones a more lipophilic compound. As for `COc1cc(Cc2cnc(N)nc2N)cc(OC)c1-n1cccc1`, the logP turned out to be 1.78. `CC1=Nc2c(Cl)cccc2S(=O)(=O)N1` registered a logP of 0.72.

Compound `COc1cn[nH]c1` registered a logP of 0.37.

On to `O=C(O)COc1ccc(N=Nc2ccccc2)cc1`, for which the logP was determined as 2.99. In the case of `CCC[n+]1cccc2ccccc21.[Br-]`, the log partition coefficient (logP) is -2.52. Compound `Nc1ccc2c(c1)C(c1ccccc1)=NCC(=O)N2` showed a log partition coefficient (logP) of 1.

`CCCCNc1ccccc1C(N)=O` yielded a lipophilicity (logP) of 2.33. The compound `CC(=O)NCCn1c([N+](=O)[O-])cnc1C` yielded a logP of -0.47.

For `CN(C)C(=O)COc1ccccc1`, the lipophilicity (logP) is 0.8.

As to `CCCCCC(=O)N[C@@H]1C(=O)N2[C@@H]1SC(C)(C)[C@@H]2C(=O)O`, the logP was found to be 2.37.

`Brc1n[nH]c(Br)n1`: the logP turned out to be 2.24. The compound `CSC(C)=NOC(=O)N(C)SN(C)C(=O)OC1CCCCC1` returned a logP of 3.6. The compound `COc1cc(Cc2cnc(N)nc2N)ccc1Nc1ccccc1` showed a logP of 3.42. In the case of `Cc1c[n+]([O-])c2ccccc2c1[N+](=O)[O-]` it was 1.06. `CC/N=C(N)/N=C(\N)Nc1ccc(Cl)cc1` had a lipophilicity (logP) of 2.14. The compound `COc1cc(Cc2cnc(N)nc2N)cc(OC)c1C` displayed a logP of 2.14. For the compound `CON(C)C(=O)Nc1cccc(C(C)(C)C)c1`, the logP was found to be 3.21.

Regarding `C=CCc1c(OCC)cc(Cc2cnc(N)nc2N)cc1OCC`, the logP came out at 3.08. In the case of `CN(N=Nc1ccc(C(N)=O)cc1)C(C)(C)C` it was 2.61. `Fc1cccc(Cl)c1N=C1NCCN1` showed a logP of 1.45. Turning to `CC(C)Oc1ccccc1OC(=O)N(C)C`, the logP stood at 2.06. In the case of `CN(N=O)C1CCCCC1`, the logP came to 1.43. The compound `CC1=NS(=O)(=O)c2c(Cl)cccc2N1` had a logP of 0.62.

With `O=[N+]([O-])c1nccn1CCCOc1ccccc1`, the log partition coefficient (logP) was 2.38. Take `COc1ccccc1OC1OC(CO)C(O)C(O)C1O` (configuration not stated): the logP was -1.04. The compound `CCCNc1c([N+](=O)[O-])cc(C(F)(F)F)cc1[N+](=O)[O-]` had a logP of 3.65. In turn, `COc1c(O)cc(Cc2cnc(N)nc2N)cc1O` displayed a logP of -0.04. In turn, `CCOc1cc(Cc2cnc(N)nc2N)cc(OC)c1C(C)(C)O` displayed a lipophilicity (logP) of 2.11. `COCCOc1ccccc1OCCOC` gave a logP of 1.12. As for `FC(F)(F)c1nc2cc(Br)c(Br)cc2[nH]1`, the logP was 4.15. As for `Cc1cccc2c([N+](=O)[O-])cc[n+]([O-])c12`, the logP was 1.59.

`CCCCC1OC(=O)c2cc(NC(C)=O)ccc21` (configuration not stated) registered a logP of 2.77.

`O=[N+]([O-])c1cc[n+]([O-])c2c([N+](=O)[O-])cccc12`: the logP stood at 0.76. To `Cc1ccccc1C(=O)NN` belongs 0.22; to `CCCCc1nnc(N)o1`, 0.65. Compound `COP(=O)(OC)Oc1ccc([N+](=O)[O-])c(C)c1` yielded a logP of 1.69. Take `CN(C)c1ccc(C(N)=O)cc1`: the logP was 1.14. To `CCOP(=S)(OCC)Oc1ccccc1` belongs 3.46; to `CCCCCCCCCCCCCC[n+]1ccc(C)cc1C.[I-]`, 2.47; to `CCOc1ccc(OC(C)=O)cc1`, 1.95.

For the compound `CCOC(=O)C(=Cc1cccc(OC)c1OC)C(C)=O`, the logP turned out to be 2.21. Take `CNC(=O)Oc1cccc(C(=O)OC)c1`: the logP turned out to be 1.42. Regarding `O=S1(=O)NC(C2CC2)=Nc2cc(Cl)ccc21`, the logP was 1.98. To `Cc1cc(=O)[nH]n1-c1ccncn1` belongs 1.4. `NC(=O)COCc1ccco1` registered a logP of -0.11. On to `Nc1cc([N+](=O)[O-])cc(Cl)c1O`, for which the logP turned out to be 1.53. To `COC12C(COC(N)=O)C3=C(C(=O)C(C)=C(N)C3=O)N1CC1C2N1C(=O)Cc1ccccc1` (configuration not stated) belongs 1.15.

For the compound `CCCNC(=NC#N)NC`, the logP worked out at 0.42. In the case of `N#CC(C#N)=C(c1ccccc1)c1ccccc1`, the logP was determined as 3.55. In turn, `CC(C)NC(=O)NN` registered a logP of -1.3. `CCN(C)c1nc(N(C)CC)nc(N(C)CC)n1` returned a lipophilicity (logP) of 3.9. Compound `O=[N+]([O-])c1cccc2c1c([N+](=O)[O-])cc[n+]2[O-]` had a logP of 0.95.

`CCN(CC)CC(=O)NC1c2ccccc2-c2ccccc21` registered a logP of 3.64. `CNP(=O)(OC)Oc1ccc(C(C)(C)C)cc1` (configuration not stated) came in with a logP of 2.71. To `Cc1ccc(OC(=O)CNC(=O)c2ccccc2)cc1` belongs 2.83; to `S=C=Nc1ccc(C=Cc2ccccc2)cc1`, 5.85; to `COCC1=Nc2cc(Cl)ccc2S(=O)(=O)N1`, 1.12.

Take `Cc1nnc(SCc2ccccc2)[nH]1`: the logP turned out to be 1.68.

On to `C=C(Br)CC1(C(C)CC)C(=O)NC(=O)N(C)C1=O` (configuration not stated), for which the logP was found to be 2.43. To `CC(C)OCC(O)Cn1ccnc1[N+](=O)[O-]` (configuration not stated) belongs 0.51; to `O=C(O)c1cccc(CSc2ccccc2)c1O`, 4.28. To `COC1C(Cl)C(Cl)C(OC)C(Cl)C1Cl` (configuration not stated) belongs 3.15. In turn, `O=C(O)CCCCCn1nnc2ccccc21` registered a logP of 0.86. `C=C(C)C(=O)OC(C)C` returned a logP of 2.25. `FC(F)(F)c1nc2c(Cl)ccc(Cl)c2[nH]1` came in with a logP of 2.87.

`CCOC(=O)C(=Cc1ccc(C)cc1)C(C)=O` had a logP of 2.63.

In the case of `COc1cc(OC)c(OC)cc1Cc1cnc(N)nc1N`, the logP was 1.17. The compound `Cc1ccccc1C1=NCC(=O)N(C)c2ccc(Cl)cc21` registered a logP of 3.03. In the case of `N#Cc1ccc2nccnc2c1`, the logP stood at 1.01.

`CCOC(=O)C(=Cc1cccc(Cl)c1)C(=O)OCC` yielded a logP of 3.49.

For the compound `O=[N+]([O-])c1nccnc1NCC(O)CO` (configuration not stated), the logP was -0.49. `CC1(C)N=C(N)N=C(N)N1c1cccc(C#N)c1` showed a logP of -0.24. To `CC(=O)C(=Cc1ccc(F)cc1)C(C)=O` belongs 1.65; to `CCCCNC(=O)NN`, -0.6. In the case of `CC(=O)OCCOC(=O)c1ccccc1` it was 1.85; in that of `CCCCOc1cc(Cc2cnc(N)nc2N)c(C)cc1OC`, 2.78; in that of `Cn1nnnc1Sc1ccccc1`, 1.63. Regarding `NC(=O)CCCCn1nnc2ccccc21`, the logP came to 0.58. `CCCC(=O)NC(=O)NC(=O)CCC`: the logP came out at 1.4. `CS(=O)(=O)c1cccs1` returned a logP of 0.38.

Consider `COC1=C(C)C(=O)c2ccccc2C1=O`, for which the logP came to 2.14. Compound `NC1CC2CC1c1ccccc12` (configuration not stated) gave a logP of 2. The logP values of the last two compounds are within 0.2 log units of each other. `CC1=Nc2ccc(S(=O)(=O)N(C)C)cc2S(=O)(=O)N1` registered a log partition coefficient (logP) of 0.32. With `CC1=C(C(N)=O)SCCO1`, the logP is -0.22.

The compound `Oc1ccc(C(c2ccc(O)cc2)c2ccccn2)cc1` registered a logP of 2.84. In turn, `CC(C)Oc1cn[nH]c1` came in with a log partition coefficient (logP) of 1.13. `Nc1nc(N)nc(-c2cccc(Cl)c2)n1` displayed a lipophilicity (logP) of 2.33. `Cc1cccc(OC2OC(CO)C(O)C(O)C2O)c1` (configuration not stated): the logP is -0.2.

The compound `Clc1ccc(C2NCCS2)cc1` (configuration not stated) showed a logP of 2.1. The compound `CCOP(=O)(OCC)Oc1c(Cl)cc(SC)cc1Cl` gave a logP of 3.72. The compound `O=NN(CCCl)C(=O)NC12CC3CC(CC(C3)C1)C2` had a logP of 3.56. `COc1ccc(CC(C)N)c(OC)c1OC` (configuration not stated) registered a logP of 1.51. In turn, `[O-][n+]1ccc(Cl)c2ccccc21` yielded a logP of 1.08. On to `CC(=O)C(C#N)=NNc1ccccc1Cl`, for which the logP came to 4.

In the case of `CC(=O)OCC1=C(C(=O)O)N2C(=O)C(NC(=O)CSc3cc(Cl)ccc3Cl)C2SC1` (configuration not stated), the logP was determined as 1.66.

On to `Cn1cnc([N+](=O)[O-])c1S(=O)(=O)Oc1ccccc1`, for which the log partition coefficient (logP) was 1.08. On to `O=C1NC(=S)SC1=CC=Cc1ccc([N+](=O)[O-])o1`, for which the logP turned out to be 0.93. In the case of `COc1ccc(CC(C)N)c(OC)c1` (configuration not stated) it was 1.75; in that of `CC(=O)Nc1cccc(N=NN(C)C)c1`, 1.61. `O=C1CCC(=O)N1c1cccc(F)c1` registered a lipophilicity (logP) of 0.38. As to `S=C=NCc1cccc2ccccc12`, the logP came to 4.42. Compound `CSCN1C(=O)CN=C(c2ccccc2)c2cc(Cl)ccc21` registered a logP of 3.32. In the case of `COc1cc(C)c(Cc2cnc(N)nc2N)cc1OC`, the logP was 1.23. In the case of `CCOC(=O)C(=Cc1cccc(C)c1)C(C)=O`, the lipophilicity (logP) turned out to be 2.8. The compound `CC(C)(C)C(=O)NN1CC=CCC1` showed a logP of 1.03. `COc1cc(C)nn1-c1nc(C)cc(C)n1` yielded a logP of 0.73. With `CC1=C(C(=O)O)N2C(=O)C(NC(=O)Cc3cccs3)C2SC1` (configuration not stated), the logP came to 0.61. As to `O=C(O)Cc1ccc(OCc2ccccc2)cc1`, the logP is 2.72. `COP(N)(=O)Oc1cc(Cl)c(Cl)cc1Cl` (configuration not stated) came in with a logP of 2.53. For the compound `CCCCCCCCCC[n+]1ccccc1.[Br-]`, the logP is -0.72.

In the case of `CNP(=O)(OC)Oc1ccc(Cl)cc1` (configuration not stated), the lipophilicity (logP) is 1.85. `COc1cc(OC)cc(OC(=O)CNC(=O)c2ccccc2)c1` gave a lipophilicity (logP) of 2.69.

`COc1cc(Cc2cnc(N)nc2N)cc(OC)c1C(C)=O` showed a logP of 1.1. For `O=C1CN=C(c2ccccc2Br)c2cc(Br)ccc2N1`, the log partition coefficient (logP) worked out at 3.3. For the compound `CN(C)/N=N/c1ccccc1Cl`, the logP worked out at 3.03. Consider `O=C1CN=C(c2ccccc2[N+](=O)[O-])c2cc([N+](=O)[O-])ccc2N1`, for which the logP was determined as 1.61. In the case of `CC(C)(C)c1cccc(OC2OC(CO)C(O)C(O)C2O)c1` (configuration not stated) it was 1.01; in that of `CSC(C)=NOC(=O)N(C)SN(C)C(=O)N(C)C`, 1.2; in that of `CN(C)c1nnc(-c2ccccc2)c2ccccc12`, 3.22. `C=CCS(=O)(=O)c1cc(OC)c(OC)c(OC)c1` displayed a logP of 1.34. `CCCCCOn1c(=O)[nH]c(C)c(Br)c1=O` displayed a lipophilicity (logP) of 1.69. To `CC(=O)OCCN1CCS/C1=N/c1ncc([N+](=O)[O-])s1` belongs 1.88; to `COc1cc(-n2c(=O)cc(C)n2C)nc(C)n1`, 0.7.

In turn, `COc1cc(C)n(-c2nc(C)cc(C)n2)n1` had a logP of 1.82. In turn, `CSc1nnc(CCC(C)C)c(=O)n1N` had a logP of 1.85. This logP and that of the compound before are within 0.2 log units of each other. For `O=S(=O)(Nc1ccc(Cl)cc1Cl)C(F)(F)F`, the logP is 3.88. `CN(C)Cc1ccco1` showed a logP of 1.19.

The record behind these values is the OPERA property sets (Mansouri et al. 2018).
